Values quoted from earlier work as cited in patent US11267839B2, “Crystalline forms of LNT” (GLYCOM A/S, priority 2015, dated 2022).

Details: prior-art crystalline LNT from aqueous ethanol, after drying

In the case of CC(=O)N[C@H]1[C@H](O[C@H]2[C@@H](O)[C@@H](CO)O[C@@H](O[C@H]3[C@H](O)[C@@H](O)C(O)O[C@@H]3CO)[C@@H]2O)O[C@H](CO)[C@@H](O)[C@@H]1O[C@@H]1O[C@H](CO)[C@H](O)[C@H](O)[C@H]1O (stereo partly shown) [LNT, Galpβ1-3GlcNAcpβ1-3Galpβ1-4Glc], the “weight taken back when stored in air (hygroscopic)” value is listed as “around 8 % of its weight”.
